Several values for one entry are separate records, joined by “and”; a condition that tells them apart may be missing. Equal entries are not always repeated. Toxic doses and inconclusive results are not listed. How the source made its calls: active means survival T/C of 150% or more; inactive means T/C below 125% in these data.
Tested on: BDF1 mice, B16 melanoma ip, median survival T/C
Experiment: NCI In Vivo Anticancer Drug Screen. Data for tumor model B16 Melanoma (intraperitoneal) in B6D2F1 (BDF1) mice
Settings: endpoint: median survival time, higher = longer survival
How it was run: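 Tumor-bearing mice received test compound or vehicle. Survival or tumor size was then measured in both groups. The treated-group figure was divided by the control-group figure.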

[1] = dose: 25.0 mg/kg/injection, schedule: Q01DX009 (ip), vehicle: Klucel (hydroxypropylcellulose) (HPC)
[2] = dose: 50.0 mg/kg/injection, schedule: Q01DX009 (ip), vehicle: Klucel (hydroxypropylcellulose) (HPC)
[3] = dose: 100.0 mg/kg/injection, schedule: Q01DX009 (ip), vehicle: Klucel (hydroxypropylcellulose) (HPC)
[4] = dose: 200.0 mg/kg/injection, schedule: Q01DX009 (ip), vehicle: Klucel (hydroxypropylcellulose) (HPC)
[5] = dose: 12.5 mg/kg/injection, schedule: Q01DX009 (ip), vehicle: saline with Tween-80
[6] = dose: 25.0 mg/kg/injection, schedule: Q01DX009 (ip), vehicle: saline with Tween-80
[7] = dose: 50.0 mg/kg/injection, schedule: Q01DX009 (ip), vehicle: saline with Tween-80
[8] = dose: 25.0 mg/kg/injection, schedule: Q01DX009 (ip), vehicle: saline
[9] = dose: 50.0 mg/kg/injection, schedule: Q01DX009 (ip), vehicle: saline
[10] = dose: 100.0 mg/kg/injection, schedule: Q01DX009 (ip), vehicle: saline
[11] = dose: 0.1 mg/kg/injection, schedule: Q01DX009 (ip), vehicle: saline with Tween-80
[12] = dose: 0.2 mg/kg/injection, schedule: Q01DX009 (ip), vehicle: saline with Tween-80
[13] = dose: 0.38 mg/kg/injection, schedule: Q01DX009 (ip), vehicle: saline with Tween-80
[14] = dose: 0.4 mg/kg/injection, schedule: Q01DX009 (ip), vehicle: saline with Tween-80

Measured: T/C

CN1c2c(nc(N)[nH]c2=O)NCC1CCNc1ccc(C(=O)NC(CCC(=O)O)C(=O)O)cc1 (centres undefined)
inactive: [1] 106 % of control | [2] 103 % of control | dose: 50.0 mg/kg/injection, schedule: Q01DX009 (ip), vehicle: sodium bicarbonate 100 % of control | [3] 106 % of control | dose: 100.0 mg/kg/injection, schedule: Q01DX009 (ip), vehicle: sodium bicarbonate 100 % of control | dose: 200.0 mg/kg/injection, schedule: Q01DX009 (ip), vehicle: sodium bicarbonate 95 % of control | dose: 400.0 mg/kg/injection, schedule: Q01DX009 (ip), vehicle: sodium bicarbonate 118 % of control

O=C(OCCCCCCl)c1ccccc1
inactive: dose: 100.0 mg/kg/injection, schedule: Q01DX009 (ip), vehicle: saline with Tween-80 117 % of control | dose: 200.0 mg/kg/injection, schedule: Q01DX009 (ip), vehicle: saline with Tween-80 104 % of control | dose: 400.0 mg/kg/injection, schedule: Q01DX009 (ip), vehicle: saline with Tween-80 106 % of control

CCN(C(=O)c1cccc(C(=O)N(CC)c2ccccc2C)c1)c1ccccc1C
inactive: [2] 101 % of control | [3] 98 % of control | [4] 102 % of control

ClN=C(c1ccccc1)c1ccccc1
inactive: [1] 105 % of control | [2] 105 % of control

O=C(O)CSCCc1ccccc1
inactive: [3] 96 % of control | [4] 93 % of control | dose: 400.0 mg/kg/injection, schedule: Q01DX009 (ip), vehicle: Klucel (hydroxypropylcellulose) (HPC) 100 % of control

CSc1ccc(NC(=O)CCl)cc1
inactive: [5] 95 % of control | [6] 105 % of control | [7] 96 % of control

Cc1cccc2c(C(=O)O)cc(-c3ccc(Cl)cc3)nc12
inactive: [5] 97 % of control | [6] 97 % of control | [7] 95 % of control

CC(=O)Oc1ccc(N2C(=O)C3C(C2=O)C2c4ccccc4C3C3CCCCN32)cc1 (centres undefined) (tested in a mixture with another compound)
inactive: dose: 12.5 mg/kg/injection, schedule: Q01DX009 (ip), vehicle: water 103 % of control | dose: 25.0 mg/kg/injection, schedule: Q01DX009 (ip), vehicle: water 97 % of control | dose: 50.0 mg/kg/injection, schedule: Q01DX009 (ip), vehicle: water 104 % of control | dose: 100.0 mg/kg/injection, schedule: Q01DX009 (ip), vehicle: water 97 % of control

ClC(Cl)=[C](Cl)[Hg][C](Cl)=C(Cl)Cl
inactive: dose: 3.13 mg/kg/injection, schedule: Q01DX009 (ip), vehicle: Klucel (hydroxypropylcellulose) (HPC) 120 % of control | dose: 6.25 mg/kg/injection, schedule: Q01DX009 (ip), vehicle: Klucel (hydroxypropylcellulose) (HPC) 99 % of control | dose: 12.5 mg/kg/injection, schedule: Q01DX009 (ip), vehicle: Klucel (hydroxypropylcellulose) (HPC) 92 % of control

C=C1CCN2CCCC12 (centres undefined)
inactive: dose: 10.0 mg/kg/injection, schedule: Q01DX009 (ip), vehicle: saline 107 % of control | dose: 20.0 mg/kg/injection, schedule: Q01DX009 (ip), vehicle: saline 104 % of control | dose: 40.0 mg/kg/injection, schedule: Q01DX009 (ip), vehicle: saline 100 % of control | dose: 80.0 mg/kg/injection, schedule: Q01DX009 (ip), vehicle: saline 95 % of control

CN=C1CN(O)C(c2ccccc2)=c2cc(Cl)ccc2=N1
inactive: dose: 3.12 mg/kg/injection, schedule: Q01DX009 (ip), vehicle: saline 115 % of control | dose: 6.25 mg/kg/injection, schedule: Q01DX009 (ip), vehicle: saline 101 % of control and 114 % of control | dose: 12.5 mg/kg/injection, schedule: Q01DX009 (ip), vehicle: saline 92 % of control and 94 % of control and 101 % of control | [8] 100 % of control and 101 % of control | [9] 114 % of control and 117 % of control | [10] 100 % of control and 102 % of control

O=C(CCN1CCCCC1)c1cccc([N+](=O)[O-])c1
inactive: dose: 12.5 mg/kg/injection, schedule: Q04DX003 (ip), vehicle: saline 105 % of control | dose: 25.0 mg/kg/injection, schedule: Q04DX003 (ip), vehicle: saline 113 % of control | dose: 50.0 mg/kg/injection, schedule: Q04DX003 (ip), vehicle: saline 100 % of control | dose: 100.0 mg/kg/injection, schedule: Q04DX003 (ip), vehicle: Klucel (hydroxypropylcellulose) (HPC) 94 % of control

C=C(C)C12CC(C)C34OC5(CCCCCCCC(C)C6C(C)C(OC(=O)c7ccccc7)C(O)(C(O)C7(COC(=O)CCCCCCCCCCCCCCC)OC7C3C1O5)C64)O2 (centres undefined)
inactive: dose: 1.5 micrograms/kg/injection, schedule: Q01DX009 (ip), vehicle: saline 107 % of control | dose: 1.9 micrograms/kg/injection, schedule: Q01DX009 (ip), vehicle: Klucel (hydroxypropylcellulose) (HPC) 102 % of control | dose: 3.1 micrograms/kg/injection, schedule: Q01DX009 (ip), vehicle: saline 100 % of control | dose: 3.8 micrograms/kg/injection, schedule: Q01DX009 (ip), vehicle: Klucel (hydroxypropylcellulose) (HPC) 88 % of control | dose: 6.2 micrograms/kg/injection, schedule: Q01DX009 (ip), vehicle: saline 104 % of control | dose: 7.5 micrograms/kg/injection, schedule: Q01DX009 (ip), vehicle: Klucel (hydroxypropylcellulose) (HPC) 98 % of control | dose: 12.5 micrograms/kg/injection, schedule: Q01DX009 (ip), vehicle: saline 95 % of control | dose: 15.0 micrograms/kg/injection, schedule: Q01DX009 (ip), vehicle: Klucel (hydroxypropylcellulose) (HPC) 87 % of control | dose: 25.0 micrograms/kg/injection, schedule: Q01DX009 (ip), vehicle: saline 102 % of control | dose: 50.0 micrograms/kg/injection, schedule: Q01DX009 (ip), vehicle: saline 96 % of control

Oc1ccc(Nc2c3ccccc3nc3c2ccc2ccccc23)cc1CN(CCCl)CCCl
inactive: dose: 0.3 mg/kg/injection, schedule: Q01DX009 (ip), vehicle: saline 100 % of control | dose: 0.45 mg/kg/injection, schedule: Q01DX009 (ip), vehicle: saline 117 % of control | dose: 0.8 mg/kg/injection, schedule: Q01DX009 (ip), vehicle: saline 100 % of control | dose: 1.2 mg/kg/injection, schedule: Q01DX009 (ip), vehicle: saline 107 % of control

COc1cc(C=Nc2ccc(-n3ccnc3C)cc2)ccc1N(CCCl)CCCl
inactive: dose: 2.5 mg/kg/injection, schedule: Q01DX009 (ip), vehicle: Klucel (hydroxypropylcellulose) (HPC) 105 % of control

CCCCCCCCCCCCCCP(I)(N(C)C)(N(C)C)N(C)C
inactive: [11] 90 % of control | [12] 94 % of control | [13] 88 % of control | [14] 93 % of control

CC1=CC(=O)C(CO)=CC1=O
inactive: dose: 0.05 mg/kg/injection, schedule: Q01DX009 (ip), vehicle: saline with Tween-80 94 % of control | [11] 103 % of control | [12] 93 % of control | [13] 93 % of control | [14] 94 % of control

[Cl][Pt+2][Cl].[NH-]CC(=O)O.[NH-]CC(=O)O
inactive: [6] 97 % of control | [7] 92 % of control

COc1ccc2c3c1OC1C4(CCC5C(C2)N(CC2CC2)CCC351)OCCO4 (centres undefined)
inactive: [8] 97 % of control | [9] 97 % of control | [10] 90 % of control

— PubChem BioAssay AID192 (DTP/NCI, 2004)
